According to patent US20110237538A1, “TREATMENT OF LYSOSOMAL STORAGE DISORDERS AND OTHER PROTEOSTATIC DISEASES” (SUMMIT CORPORATION PLC, priority 2008, published 2011):

target: T1, wild type (wt) beta-glucocerebrosidase (Homo sapiens, UniProt P04062); assay: beta-glucocerebrosidase activity assay in HL60 lysate (4MU-β-D-glc); type: biochemical; conditions: at a concentration of 100 μM, 0.5 mM 4MU-β-D-glc;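 further: fluorometric read-out of 4MU liberated from the substrate (ex 360 nm, em 450 nm) after 37 °C incubation, reaction stopped with sodium carbonate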
T1 construct: The lysates were used as a source for wild type (wt) beta-glucocerebrosidase; endogenous in cells; host or cells: HL60 (ECACC No. 98070106) lysate
T1 sequence (P04062 40-536): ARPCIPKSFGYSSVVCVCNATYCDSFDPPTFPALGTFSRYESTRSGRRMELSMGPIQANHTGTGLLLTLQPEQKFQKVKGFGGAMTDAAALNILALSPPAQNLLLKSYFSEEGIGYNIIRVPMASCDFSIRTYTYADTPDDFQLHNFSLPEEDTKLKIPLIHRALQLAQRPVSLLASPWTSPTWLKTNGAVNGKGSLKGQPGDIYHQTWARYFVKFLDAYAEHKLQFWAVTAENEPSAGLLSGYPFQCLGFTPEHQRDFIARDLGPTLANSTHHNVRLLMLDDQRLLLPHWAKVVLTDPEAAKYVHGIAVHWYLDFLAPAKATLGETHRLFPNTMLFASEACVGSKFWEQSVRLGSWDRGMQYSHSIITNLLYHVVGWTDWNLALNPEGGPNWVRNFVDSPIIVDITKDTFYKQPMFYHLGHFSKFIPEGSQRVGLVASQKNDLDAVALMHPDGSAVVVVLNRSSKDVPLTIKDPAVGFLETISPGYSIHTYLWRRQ

SMILES | inhibition at 100 µM [%]
OCC1OC(CO)(O[C@H]2[C@H](O)[C@H](O)[C@H](CO)N[C@@H]2CO)C(O)C1O (stereo partly drawn) [Compound 77, (2S,3R,4R,5R,6R)-5-(3,4-dihydroxy-2,5-bis(hydroxymethyl)tetrahydrofuran-2-yloxy)-2,6-bis(hydroxymethyl)piperidine-3,4-diol] | > 50
OCC1OC(O[C@@H]2[C@@H](O)[C@H](O)[C@]3(O)CC[C@H]2N3)C(O)C(O)C1O (stereo partly drawn) [Compound 105, (1R,2S,3S,4S,5R)-4-(3,4,5-trihydroxy-6-(hydroxymethyl)tetrahydro-2H-pyran-2-yloxy)-8-azabicyclo[3.2.1]octane-1,2,3-triol] | > 50
OC[C@H]1[C@@H](O)[C@H](O)[C@H]2[C@H](O)[C@@H](O)CN21 [Compound 129, (1R,2R,3S,6S,7S,7aR)-3-(hydroxymethyl)hexahydro-1H-pyrrolizine-1,2,6,7-tetraol] | > 50
OC[C@@H]1CNC[C@@H](O)[C@H]1O [Compound 219, (3R,4S,5S)-5-(hydroxymethyl)piperidine-3,4-diol] | > 50
O=C(CCCCO)CCCCCCC[C@@H](O)[C@H]1N[C@H](CO)[C@@H](O)[C@@H]1O [Compound 226, (R)-13-((2R,3R,4R,5R)-3,4-dihydroxy-5-(hydroxymethyl)pyrrolidin-2-yl)-1,13-dihydroxytridecan-5-one] | > 50
CCCCNC(=O)C1N[C@@H](C)[C@H](O)[C@@H](O)[C@H]1O (stereo partly drawn) [Compound 265, (3S,4R,5S,6S)-N-butyl-3,4,5-trihydroxy-6-methylpiperidine-2-carboxamide] | > 50
C[C@@H]1NC(C(=O)NCc2ccccc2)[C@H](O)[C@H](O)[C@H]1O (stereo partly drawn) [Compound 267, (3S,4R,5S,6S)-N-benzyl-3,4,5-trihydroxy-6-methylpiperidine-2-carboxamide] | > 50
OC[C@H]1CNC[C@@H](O)[C@@H]1O [Compound 279, (3R,4R,5R)-5-(Hydroxymethyl)-3,4-piperidinediol] | > 50
OC[C@H]1[C@@H](O)[C@H](O)CN1CC1CCCCC1 [Compound 320, (2S,3R,4R)-1-(cyclohexylmethyl)-2-(hydroxymethyl)pyrrolidine-3,4-diol] | > 50
OC[C@@H]1[C@@H](O)[C@H](O)CN1CCCOc1ccccc1 [Compound 349, (2R,3R,4R)-2-(hydroxymethyl)-1-(3-phenoxypropyl)pyrrolidine-3,4-diol] | > 50
CCCCN1C[C@H](CO)[C@@H](O)[C@H](O)C1 [Compound 419, (3R,4R,5R)-1-butyl-5-(hydroxymethyl)piperidine-3,4-diol] | > 50
OCCN1C[C@H](CO)[C@@H](O)[C@H](O)C1 [Compound 420, (3R,4R,5R)-1-(2-hydroxyethyl)-5-(hydroxymethyl)piperidine-3,4-diol] | > 50
O=C(O)CN1C[C@H](CO)[C@@H](O)[C@H](O)C1 [Compound 450, 2-((3R,4R,5R)-3,4-dihydroxy-5-(hydroxymethyl)piperidin-1-yl)acetic acid] | > 50
O=C(O)CN1C[C@@H](CO)[C@H](O)[C@@H](O)C1 [Compound 451, 2-((3S,4S,5S)-3,4-dihydroxy-5-(hydroxymethyl)piperidin-1-yl)acetic acid] | > 50
CCCCCCCCCN1[C@H](CO)[C@@H](O)[C@H](O)[C@H]1CO [Compound 555, (2R,3R,4R,5R)-2,5-bis(hydroxymethyl)-1-nonylpyrrolidine-3,4-diol] | > 50
OCCCCCCCCCN1[C@H](CO)[C@@H](O)[C@H](O)[C@H]1CO [Compound 557, (2R,3R,4R,5R)-2,5-bis(hydroxymethyl)-1-(9-hydroxynonyl)pyrrolidine-3,4-diol] | > 50
CCCCCCCCCN1C[C@@H](O)[C@H](O)[C@H]1CO [Compound 568, (2R,3R,4R)-2-(hydroxymethyl)-1-nonylpyrrolidine-3,4-diol] | > 50
